According to US4226879A, “Antibiotic composition” (Kyowa Hakko Kogyo Kabushiki Kaisha, priority 1976, dated 1980):
In brackets after ≈: the same amount, converted by molar mass. Entries after “also recorded” stand apart in the source; their conditions may differ.

Assays:
[1] = test system: Staphylococcus aureus FDA 209P; experiment: MIC, agar dilution method; assay type: cell-based; conditions: FDA209P, pH 7.0, 37° C., 18 hours
[2] = test system: S. aureus FDA 209P JC-1; experiment: MIC, agar dilution method; assay type: cell-based; conditions: Staphylococcus aureus, FDA209P; pH 7.0, 37° C., 18 hours
[3] = test system: S. aureus KB-64 (tetracycline & erythromycin-resistant); experiment: MIC, agar dilution method; assay type: cell-based; conditions: Staphylococcus aureus; pH 7.0, 37° C., 18 hours
[4] = test system: Micrococcus flavus 16; experiment: MIC, agar dilution method; assay type: cell-based; conditions: pH 7.0, 37° C., 18 hours
[5] = test system: Sarcina lutea PCI 1001; experiment: MIC, agar dilution method; assay type: cell-based
[6] = test system: Bacillus subtilis PCI 219; experiment: MIC, agar dilution method; assay type: cell-based; conditions: PCI219, pH 7.0, 37° C., 18 hours
[7] = test system: B. subtilis NRRL B-558; experiment: MIC, agar dilution method; assay type: cell-based; conditions: Bacillus subtilis, NRRLB558; pH 7.0, 37° C., 18 hours
[8] = test system: B. cereus T; experiment: MIC, agar dilution method; assay type: cell-based
[9] = test system: B. megaterium APF; experiment: MIC, agar dilution method; assay type: cell-based; conditions: Priestia megaterium; pH 7.0, 37° C., 18 hours
[10] = test system: Corynebacterium paurometabolum; experiment: MIC, agar dilution method; assay type: cell-based; conditions: Tsukamurella paurometabola; pH 7.0, 37° C., 18 hours
[11] = test system: Mycobacterium smegmatis ATCC 607; experiment: MIC, agar dilution method; assay type: cell-based; conditions: Mycolicibacterium smegmatis, ATCC607; pH 7.0, 37° C., 18 hours
[12] = test system: Escherchia coli NIHJ; experiment: MIC, agar dilution method; assay type: cell-based; conditions: pH 7.0, 37° C., 18 hours
[13] = test system: Klebsiella pneumoniae PCI 602; experiment: MIC, agar dilution method; assay type: cell-based; conditions: PCI602, pH 7.0, 37° C., 18 hours
[14] = test system: Salmonella typhimurium; experiment: MIC, agar dilution method; assay type: cell-based; conditions: Salmonella enterica, pH 7.0, 37° C., 18 hours
[15] = test system: Candida albicans; experiment: MIC, agar dilution method; assay type: cell-based; conditions: pH 6.8, 27° C. 72 hours
[16] = test system: Sacchromyces cerevisiae; experiment: MIC, agar dilution method; assay type: cell-based; conditions: pH 6.8, 27° C. 72 hours
[17] = test system: Fusarium oxysporum; experiment: MIC, agar dilution method; assay type: cell-based; conditions: pH 6.8, 27° C. 72 hours
[18] = test system: Xanthomonas oryzae; experiment: microbe, parasite or virus in culture; assay type: cell-based; conditions: 72 h, pH 6.8
[19] = test system: Botrytis cinerea; experiment: MIC, agar dilution method; assay type: cell-based; conditions: pH 6.8, 27° C. 72 hours
[20] = test system: Gram-negative bacteria; experiment: growth inhibition, agar dilution method; assay type: cell-based; conditions: at concentration below 100 mcg/ml
Description: (§1) Table 1 indicates the antibacterial and antifungal activity of AM-1042 as minimum inhibitory concentration (mcg/ml) determined by the agar dilution method.
*Peptone 0.5%; meat extract 0.5%; agar 1.2% (pH 7.0), 37° C., 18

[21] = test system: fungi; experiment: antifungal activity, agar dilution method; assay type: cell-based; conditions: at a concentration below 100 mcg/ml
Text: as §1
**Potato extract containing glucose 1.0% and agar 1.2% (pH 6.8),

[22] = solubility in various solvents; assay type: physicochemical
[23] = test system: Eimeria tenella K-2, E. acervulina and E. maxima; experiment: anticoccidial test in chicks, mixed infection (Example 5); assay type: in vivo, E. maxima (in chicks); set-up: key to Caecal lession: -: not infected; +: light; ++: middle; +++: heavy; conditions: for RIW (ratio of the increase of the body weight): vs healthy chicks
Description: The results are shown in Table 5 where the ratio of the increase of the body weight (RIW) is calculated as follows: (RIW (%)=[weight at the completion of the test (in average)]/[weight of healthy chicks (control) in average]×100%.

[24] = test system: poultry; experiment: growth-promoting effect in poultry; assay type: in vivo; conditions: 0.001 to 0.02% by weight of the diet
Text: Thus, AM-1042 is potentially of interest owing to its growth-promoting effect. For this purpose, the mode of administration is analogous to those described above.

[25] = test system: poultry; experiment: side effects in poultry; assay type: in vivo, poultry such as chickens; conditions: pharmaceutical composition or assorted diet, chickens, turkeys
[26] = test system: mice; conditions: mouse, in vivo, 450 mg/kg
[27] = in vivo; conditions: mouse, ip
[28] = test system: Eimeria tenella K-2; experiment: anticoccidial test in chicks (Example 4); conditions: for Caecal lession (numbers of chicks), +: grade + (light); for Caecal lession (numbers of chicks), + / Caecal lession (numbers of chicks), ++ / Caecal lession (numbers of chicks), +++ / Caecal lession (numbers of chicks), -: groups of 10 chicks; for Caecal lession (numbers of chicks), ++: grade ++ (middle); for Caecal lession (numbers of chicks), +++: grade +++ (heavy); for Caecal lession (numbers of chicks), -: grade - (not infected)

Structure (SMILES): O=C(/C=C/C=C/C=C/C1CCCCC1)NC1=CC(O)(/C=C/C=C/C=C/C(=O)NC2=C(O)CCC2=O)C2OC2C1=O (centres unmarked) [AM-1042]
- MIC [1]: 3.1 µg/mL (≈ 5.67 µM)
- MIC [2]: 0.7 µg/mL (≈ 1.28 µM)
- MIC [3]: 6.2 µg/mL (≈ 11.3 µM)
- MIC [4]: 1.5 µg/mL (≈ 2.74 µM)
- activity upon Sarcina lutea [5]: active
- MIC ([5]; Micrococcus luteus, PCI1001, pH 7.0, 37° C., 18 hours): 6.2 µg/mL (≈ 11.3 µM)
- MIC [6]: 3.1 µg/mL (≈ 5.67 µM)
- MIC [7]: > 100 µg/mL
- activity upon Bacillus cereus [8]: active
- MIC ([8]; Bacillus cereus, pH 7.0, 37° C., 18 hours): 3.1 µg/mL (≈ 5.67 µM)
- MIC [9]: 6.2 µg/mL (≈ 11.3 µM)
- MIC [10]: 1.56 µg/mL (≈ 2.85 µM)
- MIC [11]: > 100 µg/mL
- MIC [12]: 100 µg/mL (≈ 183 µM)
- MIC [13]: > 100 µg/mL
- MIC [14]: > 100 µg/mL
- MIC [15]: > 100 µg/mL
- MIC [16]: > 100 µg/mL
- MIC [17]: > 100 µg/mL
- MIC [18]: > 100 µg/mL
- MIC [19]: > 100 µg/mL
- effect on Gram-negative bacteria [20]: no significant effect
- activity on fungi [21]: no significant activity
- solubility ([22]; in acetone): Soluble
- solubility ([22]; in chloroform): Soluble
- solubility ([22]; in dimethylformamide): Easily soluble
- solubility ([22]; in dimethylsulfoxide): Easily soluble
- solubility ([22]; in ethanol): Soluble
- solubility ([22]; in ethyl acetate): Soluble
- solubility ([22]; in fat): soluble in fat
- solubility ([22]; in methanol): Soluble
- solubility ([22]; in n-hexane): Insoluble
- solubility ([22]; in petroleum ether): Insoluble
- solubility ([22]; in water): Insoluble
- Caecal lession ([23]; 0.005 % AM-1042 (Test-5)): +
- Survival ratio ([23]; 0.005 % AM-1042 (Test-5)): 90%
- RIW (ratio of the increase of the body weight) ([23]; 0.005 % AM-1042 (Test-5)): 98.7%
- Caecal lession ([23]; 0.0075 % AM-1042 (Test-4)): -
- Survival ratio ([23]; 0.0075 % AM-1042 (Test-4)): 100%
- RIW (ratio of the increase of the body weight) ([23]; 0.0075 % AM-1042 (Test-4)): 99.9%
- Caecal lession ([23]; 0.01 % AM-1042 (Test-3)): -
- Survival ratio ([23]; 0.01 % AM-1042 (Test-3)): 100%
- RIW (ratio of the increase of the body weight) ([23]; 0.01 % AM-1042 (Test-3)): 100.8%
- Caecal lession ([23]; 0.015 % AM-1042 (Test-2)): -
- Survival ratio ([23]; 0.015 % AM-1042 (Test-2)): 100%
- RIW (ratio of the increase of the body weight) ([23]; 0.015 % AM-1042 (Test-2)): 100.5%
- Caecal lession ([23]; 0.02 % AM-1042 (Test-1)): -
- Survival ratio ([23]; 0.02 % AM-1042 (Test-1)): 100%
- RIW (ratio of the increase of the body weight) ([23]; 0.02 % AM-1042 (Test-1)): 100.2%
- growth-promoting effect [24]: capable of promoting the growth of poultry; also recorded: exhibits a growth-promoting effect
- side effects in poultry [25]: without any side effects
- side effect on mice [26]: no side effect
- LD50 [27]: 48.5 mg/kg
- Survival ratio ([28]; 0.00375 % in diet): 90%
- Survival ratio ([28]; 0.005 % in diet): 90%
- Survival ratio ([28]; 0.0075 % in diet): 100%
- Survival ratio ([28]; 0.01 % in diet): 100%
- Survival ratio ([28]; 0.015 % in diet): 100%
- Survival ratio ([28]; 0.02 % in diet): 100%
- Survival ratio ([28]; 0.03 % in diet): 100%
- Caecal lession (numbers of chicks), + ([28]; 0.00375 % in diet): 1 numbers of chicks
- Caecal lession (numbers of chicks), + ([28]; 0.005 % in diet): 3 numbers of chicks
- Caecal lession (numbers of chicks), + ([28]; 0.0075 % in diet): 5 numbers of chicks
- Caecal lession (numbers of chicks), + ([28]; 0.01 % in diet): 2 numbers of chicks
- Caecal lession (numbers of chicks), ++ ([28]; 0.00375 % in diet): 4 numbers of chicks
- Caecal lession (numbers of chicks), ++ ([28]; 0.005 % in diet): 4 numbers of chicks
- Caecal lession (numbers of chicks), ++ ([28]; 0.0075 % in diet): 2 numbers of chicks
- Caecal lession (numbers of chicks), +++ ([28]; 0.00375 % in diet): 5 numbers of chicks
- Caecal lession (numbers of chicks), +++ ([28]; 0.005 % in diet): 3 numbers of chicks
- Caecal lession (numbers of chicks), - ([28]; 0.0075 % in diet): 3 numbers of chicks
- Caecal lession (numbers of chicks), - ([28]; 0.01 % in diet): 8 numbers of chicks
- Caecal lession (numbers of chicks), - ([28]; 0.015 % in diet): 10 numbers of chicks
- Caecal lession (numbers of chicks), - ([28]; 0.02 % in diet): 10 numbers of chicks
- Caecal lession (numbers of chicks), - ([28]; 0.03 % in diet): 10 numbers of chicks
